Reference: patent US20170283859A1, “MICROFLUIDIC qRT-PCR ANALYSIS OF SINGLE CELLS” (The Trustees Of Columbia University In the City of New York, priority 2014, published 2017)

Tests used:
Type in all cases: cell-based
[1] = system: CDKN1A gene expression in single MCF-7 cells; assay: Fully integrated on-chip single-cell RT-qPCR (single analysis unit device), induction of CDKN1A
Procedure: In this example, all steps of single-cell RT-qPCR were integrated in the device from Example 1. […] MCF-7 cells were incubated with MEM media supplemented with 10% FBS and […], and were kept at 37° C. in a humidified incubator containing 5% CO2. The Cells used herein, whether treated or not, were from the same generation of MCF-7 cells to eliminate potential generational gene expression differences. The MCF-7 cell suspension was first diluted to 10^5 cells per mL in a microcentrifuge tube, and mixed to homogenize the suspension and break up cell clusters. The homogenized cell suspension was then driven into the device through the cell inlet via a syringe pump while valves were used to manipulate the direction of the flow. The trapping structure was observed under a microscope. As all cells were directed through the cell trapping unit and the width of the channel at the protruding structure (i.e., the portion of the mold that narrows the channel) within the trapping unit (5 μm) is smaller than the average diameter of MCF-7 cells (18±2 μm), a single cell was immobilized in the trap. Once a single cell was trapped, the upstream control valve (FIG. 5) was activated while the cell washing outlet was opened to direct (the potentially cell-containing) carrier fluid away from the cell trap. On average, 1.5 cells were introduced into the device per second. Single cells were consistently trapped in the microchip in 150 seconds or less. A lysis solution (100 mM TrisHCl, pH 7.5, 500 mM LiCl, 10 mM EDTA, 1% LiDS, 5 mM dithiothreitol) was used to chemically lyse the trapped cells. By mixing oligo(dT)25 functionalized beads with the cell lysate, mRNA templates from a single cell were captured and purified on the surface of the beads. The beads were then moved back to the reaction chamber and retained by an external magnet. With the cell trapping and washing outlets closed and the upstream and downstream valves open (FIG. 5), RT reagents were pipetted into the device chamber, followed by the closure of all the inlets and outlets. Then a pulsed temperature RT protocol was carried out (10 min at 25° C. and 50 min at 42° C.). Similarly, after RT, PCR reagents were introduced into the device which simultaneously flushed away the RT reagent, while the chip was situated on a magnet to immobilize the beads. Once the PCR reagents completely filled the reaction chamber, all the outlets were sealed with plugs. Then the platform was placed on the stage of a fluorescent microscope. Each PCR process was initialized and thermocycled with the following protocols: 10 min at 95° C., followed by 35 cycles of 15 s at 95° C. and 1 min at 60° C. The gene expressions of single cells were assayed for the induction of CDKN1A using a hydrolysis probe/primer. […] The threshold was calculated to be 0.07. […]

[2] = system: CDKN1A transcript levels in single MCF-7 cells; assay: Microfluidic array single-cell RT-qPCR, drug induced CDKN1A expression
Procedure: During the operation of the array chip, a single analysis unit is selected through the multiplexed valves and then 4x10^6 magnetic beads are introduced (100 nL/s for 20 s) until all analysis units have beads with a syringe pump while an external magnet is held under the chambers. The amount of beads is determined according to the manufacturer's reported bead density and verified by pipetting beads onto a glass slide and counting the total amount of beads with ImageJ software. Next a single analysis unit is reselected with the multiplexed valves and 1.25 μL of cell-containing carrier buffer are introduced (concentration: 10^5 cells/mL, flow rate: 15 nL/s, and infusion time: 83.3 seconds) into the microfluidic device and travel through the cell trap with the first cell to reach the trapping structure becoming trapped. The width of the constriction (5 μm) is smaller than the diameter of the cells (18±2 μm) and therefore the single cell can be immobilized in the trap.
Once a single cell becomes immobilized, the back control valve is opened to allow carrier fluid, potentially containing additional cells, to bypass the trapping region and flow directly to the outlet. To further ensure that no cells remain in the outlet well, buffer is injected into the inlet well with a syringe with a 25 gauge stainless steel needle. Lysis buffer is introduced into the cell trap region of each analysis unit at a flow rate of 2 μl/min over a 5-min period to lyse the trapped cell (Sun et al. 2015). After cell lysis the beads were mixed with the cell lysate by manually moving the magnet and captured the mRNA in the cell content, based on complimentary base pairing between the polyA tails of the mRNA and the oligo(dT)25 residues covalently coupled to the bead surfaces. […] The beads were moved into the active chamber and mixed with the sample (mRNA in cell lysate or XenoRNA) by magnet-driven motion. This process is then repeated for the remaining units of the array chip until five of the RT-qPCR chambers each contain beads with bound mRNA. The sixth chamber provides no-template control.
Reverse transcription is performed in all of the six chambers to convert the mRNA into cDNA, using the bead-bound oligo(dT)25 as a primer and with the chamber temperatures controlled simultaneously in closed loop by the integrated heater and temperature sensor (RT: 10 min at 25° C. and 50 min at 42° C.). The resulting cDNA template for PCR is amplified (qPCR: 10 min at 95° C., followed by 40 cycles of 15 s at 95° C. and 1 min at 60° C.) while the accumulation of products is imaged on a fluorescence microscope using a hydrolysis probe/primer set (TaqMan®). The reagent probe/primer consists of a fluorescein amidite (FAM) reporter dye, a minor groove binder and a nonfluorescent quencher (NFQ). Initially, the fluorescence of FAM is suppressed by NFQ. During the PCR annealing process, the probe binds to a complementary region of the target template. Then, during the elongation process that follows, […] from the probe, causing the fluorescent intensity of FAM to increase. To correct for fluorescent fluctuations due to batch-to-batch changes in cavity volume and PCR component concentrations, a passive reference dye (ROX) is employed to normalize the FAM signal during real-time measurements. Fluorescent intensities of ROX and FAM are acquired and measured at the end of each PCR cycle (FIG. 29).
In this example, stress induced gene expression in single cells was investigated by treating cells with MMS, an alkylating agent, and then analyzing them by on-chip RT-qPCR. […]
In each test, five MMS treated or untreated single cells were isolated and immobilized in five separate analysis units of the array, and the remaining unit was used as a no-template control. Similar to the above mentioned protocol, after cell trapping and lysis, the two-step RT-qPCR was initialized. […]

[3] = system: GAPDH transcript level in single MCF-7 cells; assay: Microfluidic array single-cell RT-qPCR, housekeeping gene GAPDH; conditions: 120 μg/mL MMS for 2.5 h
Procedure: During the operation of the array chip, a single analysis unit is selected through the multiplexed valves and then 4x10^6 magnetic beads are introduced (100 nL/s for 20 s) until all analysis units have beads with a syringe pump while an external magnet is held under the chambers. The amount of beads is determined according to the manufacturer's reported bead density and verified by pipetting beads onto a glass slide and counting the total amount of beads with ImageJ software. […] The resulting cDNA template for PCR is amplified (qPCR: 10 min at 95° C., followed by 40 cycles of 15 s at 95° C. and 1 min at 60° C.) while the accumulation of products is imaged on a fluorescence microscope using a hydrolysis probe/primer set (TaqMan®). […] Initially, the fluorescence of FAM is suppressed by NFQ. […] Fluorescent intensities of ROX and FAM are acquired and measured at the end of each PCR cycle (FIG. 29). […] The transcript levels of CDKN1 A and the housekeeping gene GAPDH was measured in MMS treated (120 μg/mL for 2.5 h) and untreated single MCF-7 cells using the microfluidic array. […]

Compound: COS(C)(=O)=O [MMS, methyl methanesulfonate]
- amount of starting templates higher than in untreated single cells ([1]; 2.5 h MMS treated MCF-7 cells): about 45 folds
- Cq value of CDKN1A RT-qPCR ([1]; MMS treated single MCF-7 cells, 2.5 h, mean of five repeated tests, untreated 32.3): 26.8
- mean Cq value lower than untreated single cells ([1]; MMS treated vs untreated single MCF-7 cells): 5.48 cycles
- transcript levels of the CDKN1A gene after MMS treatment ([1]; single MCF-7 cells): upregulated significantly
- ΔCq (difference between Cq of treated and untreated cells), CDKN1A ([2]; 120 μg/mL MMS for 2.5 h): 3.0
- mean Cq value of CDKN1A ([2]; 120 μg/mL MMS for 2.5 h, untreated 33.5): 30.5
- transcript levels of CDKN1A on treating single cells with MMS ([2]; 120 μg/mL for 2.5 h): upregulated significantly
- upregulation of CDKN1A expression vs MMS dosage ([2]; 30 to 150 μg/mL, 2.5 h): positively correlated with MMS dosage
- mean Cq value of CDKN1A ([2]; dosage 30 μg/ml, 2.5 h): 33.5
- mean Cq value of CDKN1A ([2]; dosage 150 μg/ml, 2.5 h): 29.3
- mean Cq value of CDKN1A ([2]; exposure time 0.5 h): 32.9
- mean Cq value of CDKN1A ([2]; exposure time 4.5 h): 28.1
- inter-unit Cq difference for CDKN1A ([2]; first dose step (doses from 30 to 150 μg/ml, 2.5 h)): 0.4
- inter-unit Cq difference for CDKN1A ([2]; fourth dose step (doses from 30 to 150 μg/ml, 2.5 h)): 0.7
- upregulation of CDKN1A expression vs treating time duration ([2]; range of 0.5 to 4.5 h): positively correlated with treating time duration
- inter-unit Cq difference for CDKN1A ([2]; second dose step (doses from 30 to 150 μg/ml, 2.5 h)): 0.7
- inter-unit Cq difference for CDKN1A ([2]; third dose step, 90 to 120 μg/ml, 2.5 h): 1.3
- ΔCq (difference between Cq of treated and untreated cells), GAPDH [3]: approximately 0.5
